Data as given in a melting point compilation (Tetko et al.; mined from patent text by program, amines drawn as free bases though some values may be those of a salt).

SMILES	melting point
COc1cc(C(=O)NS(=O)(=O)c2ccccc2)ccc1Cn1ccc2ccc(N)cc21	151 to 155 °C
CC(CCCCCc1nc(-c2ccc(Cl)cc2)c(-c2ccc(Cl)cc2)o1)c1nnn[nH]1 (racemic)	144 °C
COc1ccc(C2=Cc3ccc(OCc4ccccc4)cc3OC2O)cc1 (configuration not stated)	138 to 139 °C
CN(O)C(=O)c1ccc(NCCCc2ccccc2)cc1	107 to 108 °C
CCCc1c(OCCCC#CC(=O)NCCCCc2cccnc2)ccc(C(C)=O)c1O	84 to 86 °C
O=C1CCC(N2C(=O)c3cccc(CNC(=O)c4cc(Cl)cnc4Cl)c3C2=O)C(=O)N1 (configuration not stated)	> 260 °C
Cc1nc(N2CCC(NCCC3CC3)C2=O)sc1C(=O)NCc1ccc(F)cc1 (configuration not stated)	151 to 152 °C
CCCc1[nH]c2cc(C(=O)OC)ccc2c1C(=O)C1CC1	152 to 154 °C
CC(C)(C)OC(=O)NCC(C(=O)OCc1ccccc1)c1ccccc1 (configuration not stated)	58 to 59 °C
CN(C)C1CCc2[nH]c3c(C#N)cccc3c2C1 (configuration not stated)	177 to 179 °C
O=C(O)c1ccc2c(-c3ccccc3)coc2c1	160 to 170 °C
CC(C#Cc1ccc(C(O)c2cc3ccccc3s2)s1)N(O)C(N)=O (configuration not stated)	65 to 70 °C
CC1=C(C(=O)Nc2ccc(Cl)c(C(=O)OC(C)C)c2)SCCS1	122 to 124 °C
CCCCCC1(C=Cc2ccc(C(=O)O)cc2)CC2=C(C1)C(C)(C)CCC2(C)C	121 to 123 °C
CN1C(=O)N(c2cc(Cl)cc(Cl)c2)C(=O)[C@]12CN(CC(=O)O)C[C@H]2c1ccc(C#N)cc1 (relative stereo)	220 °C
COC(CCSCC=O)=NNS(=O)(=O)c1ccc(C)cc1	94 to 96 °C
O=C1CNCC2=C1N=C1N=C(N3CCOCC3)NN1C2	308 to 310 °C
COC(=O)COCc1cc2cc(C(F)(F)F)ccc2n1S(=O)(=O)c1ccccc1	90 to 92 °C
COCCOc1ccc(/C=C/COC(=O)NS(=O)(=O)NCCOC(C)C)c(Oc2ncc(C(F)(F)F)cc2Cl)c1	127 to 128 °C
COC(=O)c1ccc2c(nc(C)n2Cc2ccccc2)c1C(=O)OC	192 to 195 °C
COc1cc(CC#N)c(CCNC(=O)C(F)(F)F)cc1OC	131 °C
Cc1cc(=S)cc(C)n1CCN	162 to 164 °C
COC(=O)COc1c2ccccc2cc2c1c1c(C(N)=O)cccc1n2Cc1ccccc1	120 to 125 °C
O=C1CC2C(OCc3ccc(Br)cc3)CC(O1)C2N1CCCCC1 (single isomer, unassigned; (-))	85 to 88 °C
Clc1ccc(-c2nc(CCCCCCc3nnn[nH]3)oc2-c2ccc(Cl)cc2)cc1	148 °C

SMILES	melting point
CCOC(=O)CC[C@H](NC(=O)c1ccc(NCc2cnc3nc(N)nc(N)c3c2)cc1)C(=O)OCC	262 °C
Cc1c(NC(=O)c2ccc(Oc3ccccc3)cc2)ccc2cc(CN3CCCC3)cnc12	161 to 162 °C
Cc1cc(NC(=O)NS(=O)(=O)c2ccccc2)cc(C)c1S(=O)(=O)C[N+](=O)[O-]	140 to 142 °C
CNC(=O)C1(c2ccc([N+](=O)[O-])cc2)C2C=CC(C2)C1C(N)=O (configuration not stated)	164 to 166 °C
C=C1N(c2ccccc2)C(=O)OC12CCNCC2	185 to 186 °C
CS(=O)(=O)Oc1cccc(N2CCN(CCCCCC(=O)N3Cc4ccccc4C3)CC2)c1	141 °C
O=S(=O)(Nc1ccc(Cl)cc1)C(Cl)=C(Cl)Cl	73 to 76 °C
Cc1cc(Oc2ncc(C(F)(F)F)cc2Cl)nn1C(=O)NCCCl	98 to 100 °C
CCOC(=O)c1oc2ccc(Cc3ccc(O)cc3)c(O)c2c1C	182 to 184 °C
COc1ccccc1OCCCc1oc(-n2ccnc2C)nc1-c1ccc(Cl)cc1	84 to 85 °C
O=c1cc2c(n[nH]1)-c1ccccc1SCC2	311 to 313 °C
Cc1c(C)n(CC=Cc2ccccc2)c2c(OCc3ccc(F)cc3)nncc12	124 to 126 °C
COc1ccc(C(=O)Nc2ccc(F)cc2)cc1NS(=O)(=O)c1cccc([N+](=O)[O-])c1	221 to 240 °C
Nc1ccc(S(=O)(=O)Nc2cccc3[nH]ccc23)cc1	215 °C
COc1ccc(-c2cc3c(OC)cc(OC)cc3nc2OC(C)C(=O)N(C)C)cc1 (configuration not stated)	54 to 55 °C
O=S(=O)(NC1CCN(S(=O)(=O)c2cccs2)C1)c1ccc(Cl)cc1 (configuration not stated)	115 to 116 °C
Cc1c(Cc2ccccc2)c(=O)oc2cc(O)cc(O)c12	258 to 260 °C
COc1cc(C(=O)Nc2cc(C(=O)c3ccccc3)ccc2N2CCOCC2)cc(OC)c1OC	171 to 172 °C
CC(=O)N1CC(C)c2c1cc(C)c(O)c2C (configuration not stated)	204 to 205 °C
CC(=O)C1(C)CCc2c(C)c(O)c(C)c(C)c2O1 (configuration not stated)	97 to 98 °C
Cc1cc2n(C)c(=O)c3cnc4c(cnn4C)c3n2n1	178 to 180 °C
CNS(=O)(=O)c1ccccc1Nc1nc(Nc2ccc3c(c2)CCN(CCOC)CC3)ncc1Cl	102 to 108 °C
C=C(OCC)c1nc(-c2ccco2)c2ncn(Cc3ccc(OC)cc3)c2n1	144 to 145 °C
Fc1ccc(-c2ccn(C3CCCNC3)c2-c2ccncc2)cc1 (configuration not stated)	189 to 191 °C
CC(N)c1ccc2c(c1)C(c1ccccc1F)=NC(C)(C)C(=O)N2C (configuration not stated)	50 to 51 °C

SMILES	melting point
CCNC(=O)c1ccccc1Nc1nc(Nc2cc3c(cc2OC)CCN(CC(=O)N(C)C)CC3)ncc1Cl	99 to 111 °C
COc1ccc(C(=O)Nc2ccc(F)cc2)c2c1oc1ccccc12	246 °C
CN1CCN(CC/C=C/c2ccc3c(Nc4ccc(Sc5nccn5C)c(Cl)c4)c(C#N)cnc3c2)CC1	225 to 235 °C
CC(=O)Nc1ccc2c(c1)C(CN1CC=C(c3cn(C)c4cc(Cl)ccc34)CC1)CC2 (configuration not stated)	189 to 193 °C
CCCCOc1c(C#N)c(C#N)c(OCCCC)c2ccccc12	69 to 70 °C
CCOC1=NS(=O)(=O)c2cccc([N+](=O)[O-])c21	190 to 191 °C
COc1ccc2c(c1)S(=O)(=O)c1nccnc1N2	293 to 294 °C
N#CNC(=NCCN1CCC(C2(c3ccc(F)cc3)OCCO2)CC1)N1CCCCC1	155 to 157 °C
CCCn1c(=O)[nH]c(=O)c2[nH]c(/C=C/c3ccccc3)nc21	> 295 °C
O=C1CC(N2C=Nc3cc(Cl)cc(Cl)c3C2)C(=O)N1 (configuration not stated)	215 to 217 °C
CC(C)c1ccc(OCCCCCCCCCCCCC(Cl)(Cl)C(=O)O)cc1	47 to 49 °C
COCOCc1ccccc1C1Cn2cc(C(=O)NCc3ccc(Cl)cc3)c(=O)c3cc(CN4CCOCC4)cc(c32)O1 (configuration not stated)	202 to 204 °C
Cc1cc(C(N)=O)ncc1C(c1c(F)ccc(F)c1F)S(=O)(=O)CCC(F)(F)C(F)(F)F (configuration not stated)	155 to 156 °C
CC(Oc1ncn(-c2cccc(C(F)(F)F)c2)n1)C(=O)N(C)C (configuration not stated)	126 to 127 °C
CCC(=O)Nc1ccc2c(c1)C(=O)c1cc(NC(=O)CC)ccc1C2=O	291 °C
CC(C)=CC(=O)N[C@H]1CC[C@H](CCN2CCN(c3nccc4c3OCC4)CC2)CC1	184 °C
Cc1c(SCCCSc2ncccn2)ccnc1CNc1cnc2ccccc2c1	132 to 133 °C
Cc1nc(Nc2ccccc2)sc1-c1cccnc1	178 to 180 °C
CCn1cc(C(=O)O)c(=O)c2cc(F)c(N3CCN(C)C(c4sc5ccccc5c4C)C3)cc21 (configuration not stated)	253 to 254 °C
Cc1cc(CCC2CCC(COc3ccc(C4=NCCO4)cc3)CC2)on1 (configuration not stated)	48 to 50 °C
CCCCSc1cc(C(=O)OCC#N)cc(S(N)(=O)=O)c1Oc1ccccc1	134 to 135 °C
CN1C(=O)[C@H](NC(=O)/C=C/c2ccc(Br)cc2)N=C(c2ccccc2)c2ccccc21	121 to 124 °C
O=C(Nc1cc2ncc(CN3CCCC3)cc2cc1F)c1ccc(-c2ccc(F)cc2)cc1	198 to 200 °C
CCc1nc2c(o1)C(=O)C=CC2=O	99 °C
Cc1cccc2nc(-c3ccccc3)n(C3CCC(=O)NC3=O)c(=O)c12 (configuration not stated)	298 to 300 °C

SMILES	melting point
COc1cc(OC)cc(N2CCN(C(=O)N(C)c3nc4ccccc4nc3OC)CC2)c1	143 to 144 °C
CC(=O)Oc1ccc(Cn2ccnc2SC(C)=O)cc1	99 to 101 °C
O=C(Nc1ccc([N+](=O)[O-])cc1O)Nc1cc(Cl)ccc1O	193 to 194 °C
CC(C)Oc1ccc2nc3ccc(C(=O)O)cn3c(=O)c2c1	256 to 267 °C
O=c1[nH]c2ccc(C#CCCN3CCC(Cc4ccccc4)CC3)cc2[nH]1	221 to 223 °C
COc1ccc(F)cc1C1OC(=O)CC1C(=O)O (configuration not stated)	41 to 43 °C
CC(=O)N1CCN=C1Nc1cc(C(C)C)nn1C(C)C	139 to 140 °C
CSc1nc(=O)n(C2CCCCC2)c(=O)n1C	137 to 139 °C
O=C(O)c1cc(=O)c2cccc(/C=C/c3ccc(OCCCCc4ccc(F)cc4)cc3)c2o1	161 to 162 °C
CC(=O)OC1CSC(Oc2ccc(-c3cccnc3)cc2F)C(OC(C)=O)C1OC(C)=O (configuration not stated)	122 °C
CN1CCC(Oc2[nH]nc(-c3ccc(Cl)cc3)c2-c2ccncc2)CC1	256 to 257 °C
Cc1oc2c(-c3ccc(F)cc3)c(-c3ccc(S(C)(=O)=O)cc3)nn2c1C	158 to 160 °C
CN(CCOc1ccc(CC(F)C(=O)O)cc1)c1nc2ccccc2o1 (configuration not stated)	146 to 148 °C
CCN(CC)Cn1cnc2c1c(=O)n(C)c(=O)n2C	114 to 115 °C
O=C(O)c1ccc(OCc2ccccc2)cc1O	179 to 180 °C
O=C(Nc1ccn(CC(O)CF)c(=O)n1)c1ccccc1 (racemic)	205 °C
N#CCC(=O)Nc1ccc(-c2ccc(C(=O)O)c(=O)[nH]2)cc1	> 280 °C
Cc1ccc(C(=O)N(C)C)cc1-c1nc(NCCN(C)C)nc2c1CNC(=O)N2c1c(F)cccc1F	138 to 142 °C
CCCc1c(C(=O)C(C)C)c2ccc(C(=O)NO)cc2n1Cc1ccccc1Cl	185 to 186 °C
CN1CC(CN)Oc2c(-c3ccc(Cl)cc3Cl)cccc21 (configuration not stated)	90 °C
Cc1ccc(-c2nc(N)nc(N)c2[N+](=O)[O-])o1	196 to 197 °C
N#Cc1cc(Cl)ccc1NC(=O)C(F)(F)F	105 to 107 °C
